Six compounds from patent US20060122189A1, “Phenylpiperazine derivatives with a combination of partial dopamine-D2 receptor agonism and serotonin reuptake inhibition” (priority 2004, published 2006) can be followed below.

One may read the melting point as the temperature of the solid-liquid transition.

In data set [1] the target is T1, serotonin reuptake sites (Rattus norvegicus, UniProt P31652).
T1 construct: from tissue
Nature of the data set: In vitro affinity for serotonin reuptake sites ([3H]-paroxetine binding). The settings on record: read-out: 5-HT reuptake binding pKi (converted). As to the method:
In Vitro Affinity for Serotonin Reuptake Sites
Affinity of the compounds for serotonin reuptake sites was determined using the receptor binding assay described by E. Habert et al.,: “Characterisation of [^3H]-paroxetine binding to rat cortical membranes”, Eur. J. Pharmacol., 118, 107-114, 1985.

In data set [2] the target is T2, Human dopamine D2,L receptors (Homo sapiens, UniProt P14416).
T2 construct: host or cells: CHO-K1
T2 sequence (P14416 whole entry): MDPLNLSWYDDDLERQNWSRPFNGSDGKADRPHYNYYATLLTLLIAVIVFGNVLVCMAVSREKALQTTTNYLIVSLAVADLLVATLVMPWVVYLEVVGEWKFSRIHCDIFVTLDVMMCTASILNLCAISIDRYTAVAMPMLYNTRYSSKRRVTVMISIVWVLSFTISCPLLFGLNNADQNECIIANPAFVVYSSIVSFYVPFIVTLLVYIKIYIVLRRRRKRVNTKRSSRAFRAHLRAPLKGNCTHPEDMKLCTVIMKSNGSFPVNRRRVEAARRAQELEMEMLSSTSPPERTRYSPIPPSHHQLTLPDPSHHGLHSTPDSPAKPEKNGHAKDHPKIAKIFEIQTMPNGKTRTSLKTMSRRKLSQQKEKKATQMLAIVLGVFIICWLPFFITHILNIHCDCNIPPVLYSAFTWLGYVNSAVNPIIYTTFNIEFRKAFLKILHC
Nature of the data set: Inhibition of forskolin-induced [3H]-cAMP accumulation in CHO-K1 cells. It is filed as cell-based. The note with it: cloned human dopamine D2,L receptors; full agonist ε=1, full antagonist ε=0. As to the method:
Inhibition of Forskolin-Induced [^3H]-cAMP Accumulation
The in vitro functional activity at dopamine-D2 receptors, including the intrinsic activity (E) of the compounds of the invention was measured by their ability to inhibit forskolin-induced [^3H]-cAMP accumulation.
Human dopamine D2,L receptors were cloned in fibroblast cell line CHO-K1′ cells and obtained from Dr. Grandy, Vollum Institute, Portland, Oreg., USA. CHO cells were grown in a Dulbecco's modified Eagle's medium (DMEM) culture medium, supplemented with 10% heat-inactivated fetal calf serum, 2 mM glutamine, 1 mM pyruvate, 5000 units/ml penicillin, 5000 μg/ml streptomycin and 200 μg/ml G-418 at 37° C. in 93% air/7% CO2. For incubation with test compounds, confluent cultures grown in 24 wells plates were used. Each condition or substance was routinely tested in quadruplicate. Cells were loaded with 1 μCi [^3H]-adenine in 0.5 ml medium/well. After 2 hours, cultures were washed with 0.5 ml PBS containing 1 mM of the phosphodiesterase inhibitor isobutylmethylxanthine (IBMX) and incubated for 20 min with 0.5 ml PBS containing 1 mM IBMX and forskolin with or without test compound. After aspiration the reaction was stopped with 1 ml trichloroacetic acid 5% (w/v). […] 0.8 ml Extract was passed over Dowex (50WX-4 200-400 mesh) and aluminumoxide columns, eluted with water and 0.1M imidazole (pH=7.5). Eluates were mixed with 7 ml Insta-gel and radioactivity was counted with a liquid scintillation counter. The conversion of [^3H]-ATP into [^3H]-cAMP was expressed as the ratio in percentage radioactivity in the cAMP fraction as compared to combined radioactivity in both cAMP and ATP fractions, and basal activity was subtracted to correct for spontaneous activity.
Test compounds were obtained as 10 mM stock solutions in 100% DMSO, and diluted in PBS/IBMX to final concentrations. Typically, compounds were used in concentrations that ranged from 10^−10M to 10^−5M. From quadruplicate data counts, the mean was taken as an estimate for drug-induced, receptor-mediated effects at specified second messenger accumulation, expressed as percentage of control values (forskolin-stimulated cAMP accumulation, subtracted by basal activity). By using the non-linear curve-fitting program INPLOT or the Excel-add-in XL-Fit, mean values were plotted against drug concentration (in molar) and a sigmoid curve (four-parameter logistic curve) was constructed. The maximal forskolin-induced stimulated conversion is taken as maximum value and the maximal inhibition (usually at drug concentrations 10^−4 M or 10^−5 M) as minimum and these values were fixed during the fitting process. Thus, concentrations of the compound, causing 50% of the maximally obtained inhibition of forskolin-induced cAMP accumulation (EC50), are averaged over several experiments and presented as mean pEC50±SEM. Antagonist potency is assessed by co-incubating cells with a fixed agonist concentration and specified antagonist concentrations. Curve fitting procedures are identical to those used for estimating EC50 values. Thus IC50 values, i.e. the concentration that is able to achieve 50% of maximal antagonism that can be achieved by this compound. IC50 values are corrected using a Cheng-Prussoff equation, correcting it for agonist concentration and EC50 values that is obtained in the same experiment. Thus, Kb=IC50/(1+[agonist]/EC50, agonist). The corresponding pA2 value is −log (Kb). Concentration-response curve fitting allows estimation of pEC50 values and of maximal achievable effect (intrinsic activity or efficacy (ε). A full receptor agonist has ε=1, a full receptor antagonist has ε=0, and a partial receptor agonist has an intermediate intrinsic activity.

T1 sequence (P31652 whole entry): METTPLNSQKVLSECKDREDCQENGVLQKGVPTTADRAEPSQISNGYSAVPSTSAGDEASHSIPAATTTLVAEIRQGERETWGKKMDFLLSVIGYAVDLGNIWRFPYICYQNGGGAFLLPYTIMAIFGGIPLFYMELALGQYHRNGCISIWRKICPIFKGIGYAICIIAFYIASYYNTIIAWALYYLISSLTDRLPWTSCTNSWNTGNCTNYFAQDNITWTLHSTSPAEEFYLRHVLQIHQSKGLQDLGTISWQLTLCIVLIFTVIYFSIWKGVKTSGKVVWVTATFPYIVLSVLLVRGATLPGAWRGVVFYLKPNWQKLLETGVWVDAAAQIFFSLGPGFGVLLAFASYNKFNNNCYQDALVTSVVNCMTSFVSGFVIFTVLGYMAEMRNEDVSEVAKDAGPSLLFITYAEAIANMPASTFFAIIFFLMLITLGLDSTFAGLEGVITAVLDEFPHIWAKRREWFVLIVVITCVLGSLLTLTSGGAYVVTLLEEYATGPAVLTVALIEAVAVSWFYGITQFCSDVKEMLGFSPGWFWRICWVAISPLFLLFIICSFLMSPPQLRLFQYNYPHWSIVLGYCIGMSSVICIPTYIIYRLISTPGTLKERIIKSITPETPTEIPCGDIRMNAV

In the case of `N#Cc1ccc2occ(CCCCN3CCN(c4cccc5[nH]c(=O)oc45)CC3)c2c1` [Compound 6], the melting point fell in the range of 180 to 182 °C. The Ki in data set [1] is 0.158 nM. Further, in data set [2], the “Dopamine-D2 cAMP accum ε (intrinsic activity)” value (shortened to “Dopamine-D2 cAMP accum ε”) was 0.85.
The compound `O=c1[nH]c2cccc(N3CCN(CCCc4csc5ccc(Cl)cc45)CC3)c2o1` [Compound 7] showed a melting point of 211 to 213 °C. Also, in data set [1], the Ki was 3.16 nM. Also, in data set [2], the “Dopamine-D2 cAMP accum ε” value is listed as 0.39.
Turning to `O=c1[nH]c2cccc(N3CCN(CCCc4csc5ccc(F)cc45)CC3)c2o1` [Compound 8], the melting point was 193 to 195 °C. Moreover, the Ki in data set [1] was 1.26 nM. Further, in data set [2], the “Dopamine-D2 cAMP accum ε” value turned out to be 0.10.
`O=c1[nH]c2cccc(N3CCN(CCCCn4ccc5ccc(F)cc54)CC3)c2o1` [Compound 16] had a melting point of 143 to 145 °C. Further, in data set [1], the Ki was 0.794 nM. In data set [2], the “Dopamine-D2 cAMP accum ε” value is 0.73.
For the compound `Cn1c(=O)oc2c(N3CCN(CCCCc4csc5ccc(C#N)cc45)CC3)cccc21` [Compound 94], the melting point lay in the range of 184 to 186 °C. For the same compound, in data set [1], the Ki is 3.16 nM. The “Dopamine-D2 cAMP accum ε” value in data set [2] is reported as 0.70.
Take `Cn1c(=O)oc2c(N3CCN(CCC#Cc4ccc5ccc(F)cc5c4)CC3)cccc21` [Compound 135]: the Ki in data set [1] was 2 nM. Moreover, in data set [2], the “Dopamine-D2 cAMP accum ε” value stood at 0.45.
